Assay results published in patent US20240108738A1, “BICYCLIC PEPTIDE LIGANDS SPECIFIC FOR NK CELLS” (Bicycle Tx Limited, priority 2021, published 2024).
Numbered stars: 1 amine (or outer) side, 2 acyl side, 3 side chain; on linkers, the order of the positions; unused ones are H or OH. Bridge positions count the residues as written; N and C are the ends. Square brackets hold non-standard residues; d marks the D form. Peptide text beside a SMILES is read from it. TATA = O=C(CC[*:1])N1CN(C(=O)CC[*:2])CN(C(=O)CC[*:3])C1; Nva = CCC[C@H](N)C(=O)O

The compounds below were run against T1, Fc-tagged human NKp46 (Homo sapiens, UniProt O76036) (assay: NKp46 SPR assay (Method 1 and/or Method 2)). Settings: SPR Method 1 and/or Method 2, Table 3B.
T1 construct: purchased ACROBiosystems NC1-H5257
T1 sequence (O76036 22-304): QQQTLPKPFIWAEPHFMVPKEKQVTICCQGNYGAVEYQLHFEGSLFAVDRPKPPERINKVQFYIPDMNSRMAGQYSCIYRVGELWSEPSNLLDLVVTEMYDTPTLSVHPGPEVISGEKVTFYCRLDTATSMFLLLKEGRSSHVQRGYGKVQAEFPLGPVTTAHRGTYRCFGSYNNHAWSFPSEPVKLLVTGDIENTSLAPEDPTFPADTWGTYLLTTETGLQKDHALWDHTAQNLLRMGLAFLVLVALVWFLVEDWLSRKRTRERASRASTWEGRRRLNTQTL
Type: binding
Procedure, shortened: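 Method 1: biotinylated Avi-tag NKp46-Fc on streptavidin chip, peptides to 100-5000 nM top in PBS/0.05% Tween 20, 0.5% DMSO; 1:1 kinetic fit with mass transport. Method 2: NKp46-Fc captured by anti-Fc, PBS-P+ 2% DMSO; steady-state or kinetic 1:1 fit. Both 25° C, 50 μl/min, 60 s association.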
Compound `CCC[C@@H]1NC(=O)[C@H](CCSC)NC(=O)[C@@H]2CSCCC(=O)N3CN(CN(C3)C(=O)CCSC[C@@H](C(=O)N[C@@H](C)C(N)=O)NC(=O)[C@H](C(C)C)NC(=O)[C@H](CCCCN)NC(=O)CNC(=O)[C@H]([C@@H](C)O)NC1=O)C(=O)CCSC[C@H](NC(=O)[C@H](C)N)C(=O)N[C@@H](CC(N)=O)C(=O)N[C@@H](CC(C)C)C(=O)N[C@@H](CCC(N)=O)C(=O)N[C@@H](C)C(=O)N1CCC[C@H]1C(=O)N2` [BCY19704, A-(SEQ ID NO: 95)-A] (H-ACNLQAPCM[Nva]TGKVCA-NH2; linker 2-8-15 via TATA; N-terminus assumed) has a Kd of 1.62 µM.
With `CSCC[C@@H]1NC(=O)[C@@H]2CSCCC(=O)N3CN(CN(C3)C(=O)CCSC[C@@H](C(=O)N[C@@H](C)C(N)=O)NC(=O)[C@H](C(C)C)NC(=O)[C@H](CCCCN)NC(=O)CNC(=O)[C@H]([C@@H](C)O)NC(=O)[C@H](Cc3c[nH]cn3)NC1=O)C(=O)CCSC[C@H](NC(=O)[C@H](C)N)C(=O)N[C@@H](CC(N)=O)C(=O)N[C@@H](CC(C)C)C(=O)N[C@@H](CCC(N)=O)C(=O)N[C@@H](C)C(=O)N1CCC[C@H]1C(=O)N2` [BCY19711, A-(SEQ ID NO: 100)-A] (H-ACNLQAPCMHTGKVCA-NH2; linker 2-8-15 via TATA; N-terminus assumed) the Kd was 2.75 µM.
`CC(C)C[C@@H]1NC(=O)[C@H](CC(N)=O)NC(=O)[C@@H](NC(=O)[C@H](C)N)CSCCC(=O)N2CN3CN(C2)C(=O)CCSC[C@H](NC(=O)[C@@H]2CCCN2C(=O)[C@H](C)NC(=O)[C@H](CCC(N)=O)NC1=O)C(=O)N[C@@H](CC(C)C)C(=O)N[C@@H](Cc1c[nH]cn1)C(=O)N[C@@H]([C@@H](C)O)C(=O)NCC(=O)N[C@@H](CCCCN)C(=O)N[C@@H](C(C)C)C(=O)N[C@H](C(=O)N[C@@H](C)C(N)=O)CSCCC3=O` [BCY19712, A-(SEQ ID NO: 101)-A] (H-ACNLQAPCLHTGKVCA-NH2; linker 2-8-15 via TATA; C-terminus assumed) showed a Kd of 3.14 µM.
For `CSCC[C@@H]1NC(=O)[C@@H]2CSCCC(=O)N3CN(CN(C3)C(=O)CCSC[C@@H](C(=O)N[C@@H](C)C(N)=O)NC(=O)[C@H](C(C)C)NC(=O)[C@H](CCCCN)NC(=O)CNC(=O)[C@H]([C@@H](C)O)NC(=O)[C@H](CCC(N)=O)NC1=O)C(=O)CCSC[C@H](NC(=O)[C@H](C)N)C(=O)N[C@@H](CC(N)=O)C(=O)N[C@@H](CC(C)C)C(=O)N[C@@H](CCC(N)=O)C(=O)N[C@@H](CCC(N)=O)C(=O)N[C@@H](C)C(=O)N2` [BCY19713, A-(SEQ ID NO: 102)-A] (H-ACNLQQACMQTGKVCA-NH2; linker 2-8-15 via TATA; N-terminus assumed), the Kd was 1.83 µM.
In the case of `CC[C@H](C)[C@@H]1NC(=O)CNC(=O)[C@H](Cc2c[nH]c3ccccc23)NC(=O)[C@H](CCC(N)=O)NC(=O)[C@@H]2CSCCC(=O)N3CN(CN(C3)C(=O)CCSC[C@H](N)C(=O)N[C@@H](CC(=O)O)C(=O)N[C@@H](CC(C)C)C(=O)N[C@@H]([C@@H](C)O)C(=O)N[C@@H]([C@@H](C)O)C(=O)N[C@@H](Cc3c[nH]cn3)C(=O)N[C@@H](CC(N)=O)C(=O)N2)C(=O)CCSC[C@@H](C(=O)N[C@@H](C)C(N)=O)NC1=O` [BCY19718, (SEQ ID NO: 11)-A] (H-CDLTTHNCQWGICA-NH2; linker 1-8-13 via TATA), the Kd is reported as 1.11 µM.
Compound `CC[C@H](C)[C@@H]1NC(=O)CNC(=O)[C@H](Cc2c[nH]c3cc(C)ccc23)NC(=O)[C@H](CCC(N)=O)NC(=O)[C@@H]2CSCCC(=O)N3CN(CN(C3)C(=O)CCSC[C@@H](C(=O)N[C@@H](C)C(N)=O)NC1=O)C(=O)CCSC[C@H](NC(=O)[C@H](C)N)C(=O)N[C@@H](CC(=O)O)C(=O)N[C@@H](CC(C)C)C(=O)N[C@@H]([C@@H](C)O)C(=O)N[C@@H]([C@@H](C)O)C(=O)N[C@@H](Cc1c[nH]cn1)C(=O)N[C@@H](CC(N)=O)C(=O)N2` [BCY19722, A-(SEQ ID NO: 160)-A] has a Kd of 1.46 µM.
`CC[C@H](C)[C@@H]1NC(=O)CNC(=O)[C@H](Cc2c[nH]c3c(C)cccc23)NC(=O)[C@H](CCC(N)=O)NC(=O)[C@@H]2CSCCC(=O)N3CN(CN(C3)C(=O)CCSC[C@@H](C(=O)N[C@@H](C)C(N)=O)NC1=O)C(=O)CCSC[C@H](NC(=O)[C@H](C)N)C(=O)N[C@@H](CC(=O)O)C(=O)N[C@@H](CC(C)C)C(=O)N[C@@H]([C@@H](C)O)C(=O)N[C@@H]([C@@H](C)O)C(=O)N[C@@H](Cc1c[nH]cn1)C(=O)N[C@@H](CC(N)=O)C(=O)N2` [BCY19723, A-(SEQ ID NO: 161)-A] gave a Kd of 2.27 µM.

The compounds below were run against CD16a (F Variant) (Homo sapiens, UniProt P08637) (assay: FcγRIII (CD16a) SPR (Method A and/or Method B), F variant). Settings: not given.
Type: binding
`C[C@H](N)C(=O)N[C@H]1CSCc2nc3nc(n2)CSC[C@H](NC(=O)[C@@H]2CCCN2C(=O)[C@H](CCC(=O)O)NC(=O)[C@H](CO)NC(=O)[C@@H]2CCN2C(=O)[C@H](Cc2c[nH]cn2)NC(=O)[C@H](Cc2c[nH]c4ccccc24)NC(=O)[C@H](CCCNC(=N)N)NC1=O)C(=O)NCC(=O)N[C@@H](C)C(=O)N[C@@H](Cc1c[nH]c2ccccc12)C(=O)N[C@H](C(=O)N[C@@H](C)C(N)=O)CSC3` [BCY20382, A-(SEQ ID NO: 227)-A] was tested, and the Kd was 0.385 µM.
